For data set [1], the target named is T1, AnInD (indole-3-carboxylic acid decarboxylase) (Glutamicibacter nicotianae, UniProt Z9P359VB74, D169L).
T1 construct: His6-tagged (C-terminal in pET30a or N-terminal in pET28a), E. coli BL21(DE3), Ni-NTA, ~50 kDa by SDS-PAGE, hexamer, reconstituted with prFMN and Mn2+
T1 sequence (Z9P359VB74 2-461 D169L): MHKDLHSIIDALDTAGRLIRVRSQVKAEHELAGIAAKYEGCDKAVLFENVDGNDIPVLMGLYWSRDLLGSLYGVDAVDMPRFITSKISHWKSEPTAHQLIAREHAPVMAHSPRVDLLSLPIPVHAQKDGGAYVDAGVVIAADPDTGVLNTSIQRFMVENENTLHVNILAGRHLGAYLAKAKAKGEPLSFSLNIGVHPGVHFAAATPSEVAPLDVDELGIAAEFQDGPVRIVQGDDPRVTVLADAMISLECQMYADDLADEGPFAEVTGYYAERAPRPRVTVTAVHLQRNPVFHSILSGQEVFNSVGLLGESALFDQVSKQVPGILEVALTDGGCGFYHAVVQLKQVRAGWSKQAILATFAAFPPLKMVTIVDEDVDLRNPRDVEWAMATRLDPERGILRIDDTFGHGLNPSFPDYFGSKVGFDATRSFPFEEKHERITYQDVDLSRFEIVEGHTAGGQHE
Put plainly: end point HPLC decarboxylation assay. The format is biochemical. Conditions: prFMN-reconstituted; 50 mM potassium phosphate pH 6.5, 10 mM I3C, 2 μM enzyme.

For data set [2], the target named is T2, AnInD (indole-3-carboxylic acid decarboxylase) (Glutamicibacter nicotianae, UniProt Z9P359VB74, D169A).
T2 construct: His6-tagged (C-terminal in pET30a or N-terminal in pET28a), E. coli BL21(DE3), Ni-NTA, ~50 kDa by SDS-PAGE, hexamer, reconstituted with prFMN and Mn2+
T2 sequence (Z9P359VB74 2-461 D169A): T1 sequence (Z9P359VB74 2-461 D169L) with L168A
Put plainly: end point HPLC decarboxylation assay. The data set is classed as biochemical. The settings on record: prFMN-reconstituted; 50 mM potassium phosphate pH 6.5, 10 mM I3C, 2 μM enzyme.

In data set [3] the target is T3, AnInD (indole-3-carboxylic acid decarboxylase) (Glutamicibacter nicotianae, UniProt Z9P359VB74, D169V).
T3 construct: His6-tagged (C-terminal in pET30a or N-terminal in pET28a), E. coli BL21(DE3), Ni-NTA, ~50 kDa by SDS-PAGE, hexamer, reconstituted with prFMN and Mn2+
T3 sequence (Z9P359VB74 2-461 D169V): T1 sequence (Z9P359VB74 2-461 D169L) with L168V
Put plainly: end point HPLC decarboxylation assay. The data set is classed as biochemical. Conditions: prFMN-reconstituted; 50 mM potassium phosphate pH 6.5, 10 mM I3C, 2 μM enzyme.

The target in data set [4] is T4, SrCAR (Seginiliparous rugosus carboxylic acid reductase) (Segniliparus rugosus, UniProt E5XP76).
T4 construct: gene car
T4 sequence (E5XP76 1-1188): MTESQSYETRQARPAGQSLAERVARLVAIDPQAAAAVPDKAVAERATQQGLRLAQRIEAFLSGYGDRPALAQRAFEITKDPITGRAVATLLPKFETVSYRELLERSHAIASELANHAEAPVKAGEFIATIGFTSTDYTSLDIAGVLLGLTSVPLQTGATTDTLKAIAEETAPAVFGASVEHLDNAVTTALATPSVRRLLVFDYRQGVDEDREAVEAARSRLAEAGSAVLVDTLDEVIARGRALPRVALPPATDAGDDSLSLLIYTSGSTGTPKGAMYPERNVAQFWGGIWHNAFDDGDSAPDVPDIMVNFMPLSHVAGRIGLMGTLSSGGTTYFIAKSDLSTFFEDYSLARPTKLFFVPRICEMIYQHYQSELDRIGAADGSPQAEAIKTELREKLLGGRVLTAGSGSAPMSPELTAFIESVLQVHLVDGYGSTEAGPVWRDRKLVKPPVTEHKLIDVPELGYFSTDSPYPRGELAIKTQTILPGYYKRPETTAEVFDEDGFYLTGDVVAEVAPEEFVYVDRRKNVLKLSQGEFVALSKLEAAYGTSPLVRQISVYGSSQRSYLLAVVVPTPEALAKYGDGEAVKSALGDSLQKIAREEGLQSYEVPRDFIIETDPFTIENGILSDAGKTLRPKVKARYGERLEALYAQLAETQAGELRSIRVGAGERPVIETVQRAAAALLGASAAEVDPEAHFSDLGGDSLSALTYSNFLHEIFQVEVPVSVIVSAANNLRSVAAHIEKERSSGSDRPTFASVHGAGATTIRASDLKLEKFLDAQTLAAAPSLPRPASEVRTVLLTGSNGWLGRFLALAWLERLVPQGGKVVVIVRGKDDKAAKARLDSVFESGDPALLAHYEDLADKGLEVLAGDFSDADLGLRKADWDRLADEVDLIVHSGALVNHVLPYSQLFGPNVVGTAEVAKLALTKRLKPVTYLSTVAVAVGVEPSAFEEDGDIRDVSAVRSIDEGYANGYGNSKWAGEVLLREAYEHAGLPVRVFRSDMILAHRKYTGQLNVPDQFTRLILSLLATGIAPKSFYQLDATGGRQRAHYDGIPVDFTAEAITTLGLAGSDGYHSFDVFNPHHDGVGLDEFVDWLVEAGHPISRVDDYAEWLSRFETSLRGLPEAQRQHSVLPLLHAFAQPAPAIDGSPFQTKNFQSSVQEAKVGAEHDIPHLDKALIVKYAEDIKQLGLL
Put plainly: one-pot cascade with AnInD, HPLC. The data set is classed as biochemical. Conditions: I3C formed in situ from indole + NaHCO3 by AnInD; ATP, NADPH, Mn2+, Mg2+; potassium phosphate, 30 °C.

The next data set has as its system T5, O=C(O)c1c[nH]c2ccccc12.
T5 construct: His6-tagged (C-terminal in pET30a or N-terminal in pET28a), E. coli BL21(DE3), Ni-NTA, ~50 kDa by SDS-PAGE, hexamer, reconstituted with prFMN and Mn2+
Put plainly: purified protein. The data set is classed as biochemical, Glutamicibacter nicotianae. The settings on record: prFMN-reconstituted enzyme, Mn2+, 50 mM potassium phosphate pH 6.5, 50 mM KCl, room temperature, apparent because active enzyme (prFMN) content is unknown.

Data set [5] deals with indole-3-carboxylate decarboxylase from Arthrobacter nicotianae (Arthrobacter nicotianae). As to the kind of experiment: crystal structure; AnInD at ca 15 mg/ml, sitting drop vapor diffusion, PACT screen condition G5, 20 °C; crystals soaked with prFMN; space group P2_(1); whole hexamer in the asymmetric unit.
Data set [6] has the same target. As to the kind of experiment: SAXS; HPLC SAXS (Shodex KW-403 column, 0.15 ml/min) on beamline B21, Diamond Light Source; ab initio envelope (DAMMIN/DAMAVER) with the hexamer crystal structure superimposed.

Residue numbers refer to the chain shown, from its start.

For the compound `O=C(O)c1c[nH]c2ccccc12` [I3C, indole-3-carboxylic acid], the activity result in data set [1], in data set [2] and in data set [3] was “All AnInD D169X variants were found to be severely affected in activity” throughout. The “one-pot cascade with AnInD, HPLC” value in data set [4] is “These assays revealed the formation/production of indole-3-carboxyaldehyde”.
One may read the Km as the substrate concentration at which the rate is half of its maximum. For “AnInD (indole-3-carboxylic acid decarboxylase) (Glutamicibacter nicotianae)”, in the data set on O=C(O)c1c[nH]c2ccccc12, the Km came out at 790 µM and the kcat is 4.4 (±0.3) s^−1.
The term stoichiometry N denotes the number of molecules, sites or subunits per partner or assembly. For “indole-3-carboxylate decarboxylase from Arthrobacter nicotianae (enzyme)”, the stoichiometry N in data set [5] and in data set [6] was 6 each time.
